This passage reports T/C results from PubChem BioAssay AID248 (DTP/NCI, 2004).

Several values for one entry are separate records, joined by “and”; a condition that tells them apart may be missing. Equal entries are not always repeated. Inconclusive results and toxic doses are left out.

This test has as its system L1210 leukemia ip in BDF1 mice, survival T/C. Kind of test: NCI In Vivo Anticancer Drug Screen. Data for tumor model L1210 Leukemia (intraperitoneal) in B6D2F1 (BDF1) mice. The note with it: endpoint: mean survival time, higher = longer survival. The method in brief:
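In this screen, tumor-bearing mice given compound are compared to those given vehicle, and their survival values are reported as a treated-to-control quotient.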

[1] abbreviates: dose: 100.0 mg/kg/injection, schedule: Q01DX009 (ip), vehicle: Klucel (hydroxypropylcellulose) (HPC).
Setting [2] is: dose: 200.0 mg/kg/injection, schedule: Q01DX009 (ip), vehicle: Klucel (hydroxypropylcellulose) (HPC).
Setting [3] is: dose: 400.0 mg/kg/injection, schedule: Q01DX009 (ip), vehicle: Klucel (hydroxypropylcellulose) (HPC).
[4] abbreviates: dose: 50.0 mg/kg/injection, schedule: Q01DX001 (ip), vehicle: saline.
[5] abbreviates: dose: 100.0 mg/kg/injection, schedule: Q01DX001 (ip), vehicle: saline.
Setting [6] is: dose: 200.0 mg/kg/injection, schedule: Q01DX001 (ip), vehicle: saline.
Setting [7] is: dose: 100.0 mg/kg/injection, schedule: Q01DX001 (ip), vehicle: carboxymethylcellulose (CMC).
[8] abbreviates: dose: 100.0 mg/kg/injection, schedule: Q01DX009 (ip), vehicle: carboxymethylcellulose (CMC).
Where [9] appears, read: dose: 100.0 mg/kg/injection, schedule: Q04DX003 (ip), vehicle: carboxymethylcellulose (CMC).
Where [10] appears, read: dose: 200.0 mg/kg/injection, schedule: Q01DX001 (ip), vehicle: carboxymethylcellulose (CMC).
Setting [11] is: dose: 200.0 mg/kg/injection, schedule: Q01DX009 (ip), vehicle: carboxymethylcellulose (CMC).
[12] abbreviates: dose: 200.0 mg/kg/injection, schedule: Q04DX003 (ip), vehicle: carboxymethylcellulose (CMC).
The mark [13] stands for this setting: dose: 400.0 mg/kg/injection, schedule: Q01DX001 (ip), vehicle: carboxymethylcellulose (CMC).
The mark [14] stands for this setting: dose: 400.0 mg/kg/injection, schedule: Q01DX009 (ip), vehicle: carboxymethylcellulose (CMC).
Where [15] appears, read: dose: 400.0 mg/kg/injection, schedule: Q04DX003 (ip), vehicle: carboxymethylcellulose (CMC).
[16] abbreviates: dose: 6.25 mg/kg/injection, schedule: Q01DX009 (ip), vehicle: saline.
Where [17] appears, read: dose: 12.5 mg/kg/injection, schedule: Q01DX009 (ip), vehicle: saline.
Setting [18] is: dose: 12.5 mg/kg/injection, schedule: Q04DX003 (ip), vehicle: saline.
Setting [19] is: dose: 100.0 mg/kg/injection, schedule: Q01DX009 (ip), vehicle: saline with Tween-80.
[20] abbreviates: dose: 100.0 mg/kg/injection, schedule: Q04DX003 (ip), vehicle: saline with Tween-80.
The mark [21] stands for this setting: dose: 200.0 mg/kg/injection, schedule: Q01DX009 (ip), vehicle: saline with Tween-80.
The mark [22] stands for this setting: dose: 200.0 mg/kg/injection, schedule: Q04DX003 (ip), vehicle: saline with Tween-80.
The mark [23] stands for this setting: dose: 400.0 mg/kg/injection, schedule: Q01DX009 (ip), vehicle: saline with Tween-80.
[24] abbreviates: dose: 400.0 mg/kg/injection, schedule: Q04DX003 (ip), vehicle: saline with Tween-80.
The mark [25] stands for this setting: dose: 100.0 mg/kg/injection, schedule: Q04DX003 (ip), vehicle: Klucel (hydroxypropylcellulose) (HPC).
[26] abbreviates: dose: 200.0 mg/kg/injection, schedule: Q04DX003 (ip), vehicle: Klucel (hydroxypropylcellulose) (HPC).
[27] abbreviates: dose: 400.0 mg/kg/injection, schedule: Q04DX003 (ip), vehicle: Klucel (hydroxypropylcellulose) (HPC).

As for `CC(=O)N1C(=O)c2ccccc2C1=O`, the T/C (dose: 100.0 mg/kg/injection, schedule: Q01DX001 (ip), vehicle: Klucel (hydroxypropylcellulose) (HPC)) was 95 % of control; the T/C under setting [1] was 93 % of control; the T/C (dose: 200.0 mg/kg/injection, schedule: Q01DX001 (ip), vehicle: Klucel (hydroxypropylcellulose) (HPC)) is 92 % of control; the T/C under setting [2] is 93 % of control; the T/C (dose: 400.0 mg/kg/injection, schedule: Q01DX001 (ip), vehicle: Klucel (hydroxypropylcellulose) (HPC)) is 92 % of control; the T/C under setting [3] was 90 % of control.
Regarding `C=C(C)CCc1ccccc1`, the T/C under setting [4] was 102 % of control, the T/C under setting [5] was 104 % of control and the T/C under setting [6] was 96 % of control.
For the compound `CC1S(=O)(=O)CC(NC(=O)N(CCCl)N=O)CS1(=O)=O` (centres undefined), the T/C is 159 % of control (dose: 3.5 mg/kg/injection, schedule: Q01DX001 (ip), vehicle: saline with Tween-80); 172 % of control and 208 % of control (dose: 5.3 mg/kg/injection, schedule: Q01DX001 (ip), vehicle: saline with Tween-80); 278 % of control and 309 % of control (dose: 8.0 mg/kg/injection, schedule: Q01DX001 (ip), vehicle: saline with Tween-80); 357 % of control [middle of 4 runs] (dose: 12.0 mg/kg/injection, schedule: Q01DX001 (ip), vehicle: saline with Tween-80); 324 % of control and 421 % of control (dose: 18.0 mg/kg/injection, schedule: Q01DX001 (ip), vehicle: saline with Tween-80); 444 % of control and 458 % of control (dose: 26.0 mg/kg/injection, schedule: Q01DX001 (ip), vehicle: saline with Tween-80). Further, the T/C is 516 % of control and 442 % of control (dose: 40.0 mg/kg/injection, schedule: Q01DX001 (ip), vehicle: saline with Tween-80); 421 % of control and 156 % of control (dose: 60.0 mg/kg/injection, schedule: Q01DX001 (ip), vehicle: saline with Tween-80); 252 % of control and 258 % of control (dose: 90.0 mg/kg/injection, schedule: Q01DX001 (ip), vehicle: saline with Tween-80); 116 % of control (dose: 135.0 mg/kg/injection, schedule: Q01DX001 (ip), vehicle: saline with Tween-80).
As to `CCCCCCCCCC(=O)N(C(C)C)C(C)C`, the T/C was 100 % of control under setting [7]; 96 % of control and 106 % of control under setting [8]; 93 % of control under setting [9]; 94 % of control under setting [10]; 94 % of control and 100 % of control under setting [11]; 95 % of control under setting [12]. The T/C under setting [13] is 96 % of control, the T/C under setting [14] was 95 % of control and the T/C under setting [15] was 92 % of control.
For `CC(=O)c1cccc(OC(=O)Nc2ccc(Cl)cc2)c1`, the T/C is 89 % of control under setting [7]; 101 % of control and 102 % of control under setting [8]; 92 % of control and 90 % of control under setting [9]; 94 % of control under setting [10]; 98 % of control and 90 % of control under setting [11]; 95 % of control and 97 % of control under setting [12]. The T/C by setting is: under setting [13], 89 % of control; under setting [14], 98 % of control and 88 % of control; under setting [15], 90 % of control.
Turning to `C[n+]1ccc(C#N)c2ccccc21`, the T/C is, setting by setting: (dose: 1.56 mg/kg/injection, schedule: Q01DX009 (ip), vehicle: saline) 96 % of control; (dose: 3.12 mg/kg/injection, schedule: Q01DX009 (ip), vehicle: saline) 98 % of control; under setting [16], 106 % of control; under setting [17], 98 % of control; under setting [18], 101 % of control.
On to `COc1cccc(CC(=O)NCCc2ccc(OC)c(OC)c2)c1`, for which the T/C was 92 % of control under setting [19]; 92 % of control under setting [20]; 95 % of control under setting [21]; 94 % of control under setting [22]; 90 % of control under setting [23]; 91 % of control under setting [24].
Turning to `COc1cc(=O)n2cc(C)ccc2n1`, the T/C under setting [4] was 98 % of control; the T/C under setting [5] is 101 % of control; the T/C under setting [6] is 95 % of control; the T/C (dose: 400.0 mg/kg/injection, schedule: Q01DX001 (ip), vehicle: saline) is 90 % of control.
Turning to `COc1ccc(/C=C/C(=O)c2ccc(OC)cc2)cc1`, the T/C runs as follows: under setting [1], 100 % of control; under setting [25], 102 % of control; under setting [2], 94 % of control; under setting [26], 98 % of control; under setting [3], 92 % of control; under setting [27], 101 % of control.
For the compound `O=C1OC2(CCN(Cc3ccccc3)CC2)C(=O)N1c1cccc(Cl)c1`, the T/C runs as follows: under setting [7], 92 % of control; under setting [10], 106 % of control; under setting [13], 97 % of control.
Regarding `CC(=O)Oc1cccc(/C=C/C(=O)O)c1`, the T/C was 91 % of control under setting [19]; 98 % of control under setting [20]; 91 % of control under setting [21]; 102 % of control under setting [22]; 90 % of control under setting [23]; 91 % of control under setting [24].
Turning to `CCN(CC)CCCOC(=O)/C=C/c1c(C)[nH]c(=O)[nH]c1=O`, the T/C reads like this: under setting [16], 106 % of control; under setting [17], 97 % of control; under setting [18], 102 % of control; (dose: 25.0 mg/kg/injection, schedule: Q01DX009 (ip), vehicle: saline) 96 % of control; (dose: 25.0 mg/kg/injection, schedule: Q04DX003 (ip), vehicle: saline) 103 % of control; (dose: 50.0 mg/kg/injection, schedule: Q01DX009 (ip), vehicle: saline) 103 % of control. Moreover, the T/C (dose: 50.0 mg/kg/injection, schedule: Q04DX003 (ip), vehicle: saline) was 116 % of control.
Regarding `Cc1ccc([As+](c2ccccc2)(c2ccccc2)c2ccccc2)cc1`, the T/C by setting is: (dose: 5.0 mg/kg/injection, schedule: Q01DX001 (ip), vehicle: saline) 101 % of control; (dose: 10.0 mg/kg/injection, schedule: Q01DX001 (ip), vehicle: saline) 95 % of control; (dose: 20.0 mg/kg/injection, schedule: Q01DX001 (ip), vehicle: saline) 96 % of control.
Consider `O=C(NCCF)NC1CCSCC1`, for which the T/C was 112 % of control (dose: 100.0 mg/kg/injection, schedule: Q01DX001 (ip), vehicle: other); 103 % of control (dose: 200.0 mg/kg/injection, schedule: Q01DX001 (ip), vehicle: other); 98 % of control (dose: 400.0 mg/kg/injection, schedule: Q01DX001 (ip), vehicle: other).
Consider `COc1ccc(OC)c(NC(=O)Nc2ccc(N(C)C(C)=O)cc2)c1`, for which the T/C reads like this: under setting [25], 90 % of control; under setting [26], 87 % of control; under setting [27], 88 % of control.
Consider `CCCCCCCC/C=C\CCCCCCCCN1CC(C(=O)[O][Pb]([CH2]C)([CH2]C)[CH2]C)CC1=O` (centres undefined), for which the T/C is, setting by setting: (dose: 1.5 mg/kg/injection, schedule: Q01DX009 (ip), vehicle: saline with Tween-80) 100 % of control; (dose: 3.0 mg/kg/injection, schedule: Q01DX009 (ip), vehicle: saline with Tween-80) 101 % of control; (dose: 6.0 mg/kg/injection, schedule: Q01DX009 (ip), vehicle: saline with Tween-80) 100 % of control; (dose: 6.25 mg/kg/injection, schedule: Q01DX009 (ip), vehicle: saline with Tween-80) 94 % of control; (dose: 12.5 mg/kg/injection, schedule: Q04DX002 (ip), vehicle: saline with Tween-80) 108 % of control; (dose: 25.0 mg/kg/injection, schedule: Q04DX002 (ip), vehicle: saline with Tween-80) 105 % of control.
